Assay results as given in article PMC11302837, “Efficacy of BRAF/MEK-inhibitor therapy for epithelioid glioblastoma with a novel BRAFV600 mutation” (Acta Neuropathologica Communications, 2024).

What was measured:
[1] = Concentration of BRAF/MEK inhibitors in patient CSF by LC-MS/MS; type: in vivo, human; settings: for CSF concentration: CSF via EVD; for Kp: human, CSF/serum, oral
Method: (§1) Determination of BRAF/MEK inhibitors concentration in plasma and CSF of patients by liquid chromatography–tandem mass spectrometry
(§2) Native CSF samples were used with a standard addition method for quantification. A volume of 20 µl was always injected into the Ultimate 3000 HPLC system from Thermo Scientific system coupled to an API4000 tandem mass spectrometer (ABSciex, Darmstadt, Germany). The BRAF and MEK inhibitors encorafenib, binimetinib, dabrafenib and trametinib were separated by reversed phase chromatography with a Synergi 4 μm Hydro-RP 80 A, 150 × 3 mm column (Phenomenex, Torrance, USA).
(§3) The temperature of column was constantly at 40 °C. Determination of the analytes was performed using the multiple reaction monitoring mode with nitrogen as collision gas. For positive ionization, a capillary voltage of 4000 V (positive ion mode) was used. Quantification was performed by the peak area method, and a weighted (1/x) regression of first order yielded the concentrations.
(§4) Moreover, comprehensive analyses of the patients’ CSF and plasma using liquid chromatography-tandem mass spectrometry were performed to determine the concentrations of various MAPKi two, four, and five days after regimen modification, i.e. five, seven, and eight days following initiation of the targeted therapy. There was a clear accumulation of all MAPKi in the patient’s plasma (Table 2). The concentrations determined reside within the therapeutic range of the maximum and minimum plasma concentrations published (Table 2).

[2] = Concentration of BRAF/MEK inhibitors in patient serum/plasma by LC-MS/MS; type: in vivo, human; settings: encorafenib/binimetinib given day 1-3 then discontinued, dabrafenib/trametinib from day 4
Method: as §1
Sample preparation of plasma and CSF samples was different. Twenty microliters of plasma were diluted with 180 µL of water and mixed with 200 µL formic acid (1%). An automated solid phase extraction with an ASPEC XL (Gilson, Middleton, USA) and Oasis HLB (Waters, Milford, USA) cartridges were used. The cartridges were conditioned, loaded, washed and finally eluted with 1 mL methanol. The SPE extracts were evaporated to dryness and reconstituted with 200 µL. For quantification, 10-point external calibration curves in blank plasma at the range from 1.95 to 1000 µg/L for all four substances were freshly prepared and measured in parallel.
as §2, §3, §4

[3] = set-up: method as in earlier work; settings: serum of patients; ref EMA product information sheet, Delord et al., 2017 [29], Sullivan et al., 2020 [30]; cited from earlier work
[4] = Tolerability of oral regimen in the patient; type: in vivo, human; settings: oral hard capsules and tablets; quantity and size
Method: Based on the promising results of the mutational and IHC analyses, a targeted therapy with the BRAF inhibitor, encorafenib and the MEK inhibitor, binimetinib was initiated. The dosage mirrored that of MM with 450 mg of encorafenib (i.e. 6 × 75 mg) administrated daily, and 45 mg of binimetinib (i.e. 3 × 15 mg), administrated twice daily. […] Consequently, after three days, the regimen was modified.

[5] = day 5 after treatment initiation
[6] = day 7 after treatment initiation
[7] = day 8 after treatment initiation

| CSF concentration [1, 5] [ng/mL] | CSF concentration [1, 6] [ng/mL] | CSF concentration [1, 7] [ng/mL] | Kp [1, 5] | Kp [1, 6] | Kp [1, 7] | Serum concentration [2, 5] [ng/mL] | Serum concentration [2, 6] [ng/mL] | Serum concentration [2, 7] [ng/mL] | SMILES | C max (maximum plasma concentration) [3] [ng/mL] | C min (minimum plasma concentration) [3] [ng/mL] | Tolerability by the patient [4] |
| --- | --- | --- | --- | --- | --- | --- | --- | --- | --- | --- | --- | --- |
| 10.3 | 5.3 | 5.0 | 0.107 | 0.277 | 0.362 | 96.5 | 19.1 | 13.8 | Cn1cnc2c(F)c(Nc3ccc(Br)cc3F)c(C(=O)NOCCO)cc21 [Binimetinib, binimetinib] | 654 | 51.4 | poorly tolerated |
| 0.0 | 0.3 | 0.4 | 0 | 0.039 | 0.043 | 8.8 | 7.7 | 9.2 | CC(=O)Nc1cccc(-n2c(=O)n(C3CC3)c(=O)c3c(Nc4ccc(I)cc4F)n(C)c(=O)c(C)c32)c1 [Trametinib, trametinib] | 22.2 | 12.1 | better tolerated |
| 2.4 | 1.1 | 1.1 | 0.178 | 0.193 | 0.18 | 13.5 | 5.7 | 6.1 | COC(=O)N[C@@H](C)CNc1nccc(-c2cn(C(C)C)nc2-c2cc(Cl)cc(NS(C)(=O)=O)c2F)n1 [Encorafenib, encorafenib] | 3800 | 13.9 | poorly tolerated |

| SMILES | CSF concentration [1, 5] [ng/mL] | CSF concentration [1, 6] [ng/mL] | CSF concentration [1, 7] [ng/mL] | Kp [1, 5] | Kp [1, 6] | Kp [1, 7] | Serum concentration [2, 5] [ng/mL] | Serum concentration [2, 6] [ng/mL] | Serum concentration [2, 7] [ng/mL] | C max (maximum plasma concentration) [3] [ng/mL] | C min (minimum plasma concentration) [3] [ng/mL] | Tolerability by the patient [4] |
| --- | --- | --- | --- | --- | --- | --- | --- | --- | --- | --- | --- | --- |
| CC(C)(C)c1nc(-c2cccc(NS(=O)(=O)c3c(F)cccc3F)c2F)c(-c2ccnc(N)n2)s1 [Dabrafenib, dabrafenib] | 5.4 | 6.1 | 1.5 | 0.017 | 0.032 | 0.016 | 322.9 | 188.0 | 94.6 | 1478 | 26 | better tolerated |
